Laboratory results published in patent US10189796B2, “[4-(1,3,3-trimethyl-2-oxo-3,4-dihydro-1H-quinoxalin-7-yl)phenoxy]ethyloxy compound or salt thereof” (SANTEN PHARMACEUTICAL CO., LTD., priority 2015, dated 2019).
Structures can show the parent of a compound that is named as a salt.

Tests used:
[1] = system: IL-6 production in human corneal epithelium cell line (HCE-T); experiment: IL-6 production inhibitory action evaluation test (LPS stimulation, HTRF); format: cell-based; settings: 4 hours; for Emax: 100 μM test compound solution 10 μL/well, DEX treated group = 100, read-out: IL-6 production inhibitory ratio (% DEX); for IC50: IL-6 production inhibition
Description: To evaluate the action of the present compounds as a GR agonist, IL-6 production inhibitory action in human corneal epithelial cell line after LPS stimulation was examined The IL-6 production was measured by using the HTRF method (Cat No. 62IL6PEB manufactured by Cisbio Bioassays, Inc.) according to the attached protocol. The specific method is described below.
LPS solution: After dissolving LPS in PBS(−), the resulting solution was diluted with a culture solution, whereby an LPS solution with a 1 μg/mL concentration was prepared.
After dissolving the test compound in dimethylsulfoxide, the solution was diluted with a 10% FBS-DMEM/Ham's F12 medium, whereby a 100 μM of the test compound solution was prepared. […] In addition, DEX was similarly dissolved, whereby a 100 μM concentration of the DEX solution was prepared, and an IL-6 production inhibitory ratio of DEX was measured, and used for calculation of Efficacy (% DEX).
Used cells: human corneal epithelium cell line (HCE-T) (RIKEN, Institute of Physical and Chemical Research)
The cells continued to subculture according to this method were used for the test. (Test Method and Measurement Method) • 1) The subcultured HCE-T was recovered and the cells were seeded at 2.0×10^4 cells/0.1 mL/well in a 96-well flat bottom culture plate. • 2) After culturing overnight, medium the medium was removed and each 80 μL/well of 10%
FBS-DMEM/Ham's F12 medium was added. • 3) Test compound solution was added with each 10 μL/well. • 4) LPS solution was added with each 10 μL/well. • 5) The sample to which 1% dimethylsulfoxide-containing 10% FBS-DMEM/Ham's F12 medium was added with each 10 μL/well in place of each test compound solution, and 10% FBS-DMEM/Ham's F12 medium was added in place of the LPS solution was made a negative control. • 6) The sample in which 1% dimethylsulfoxide-containing 10% FBS-DMEM/Ham's F12 medium was added with each 10 μL/well in place of each test compound solution was made a positive control. • 7) After completion of 4 hours cultivation, the supernatant was recovered and the amount of IL-6 released in the supernatant was measured by using an HTRF human IL-6 Kit. • 8) The IL-6 production inhibitory ratio was calculated according to the following calculation formula. (Calculation of IL-6 Production Inhibitory Ratio)
The IL-6 production inhibitory ratio (%) was calculated by the following formula. IL-6 production inhibitory ratio (%)=100×{1−(IL-6 produced amount of each test compound solution−average value of IL-6 produced amount of negative control group)/(average value of IL-6 produced amount of positive control group−average value of IL-6 produced amount of negative control group)}(%)
Further, the IL-6 production inhibitory ratio (Efficacy (% DEX)) when the DEX treated group was made 100 was calculated. Efficacy (% DEX)=100×{(average value of IL-6 production inhibitory ratio of each test compound solution)/(average value of IL-6 production inhibitory ratio of DEX treated group)}(%)
In addition, IC50 was calculated according to a conventional method. IDBS XLfit4 was used for the calculation.

Recombinant human GR = Recombinant human GR (Homo sapiens (Human), UniProt P04150); experiment: GR competitive binding assay by fluorescence polarization; settings: 20 μM test compound solution, 10 μL/well; 2 hours; DEX positive control; read-out: GR binding rate (%)
Description: In order to evaluate a binding activity of the present compound to GR, a GR receptor competitor assay was carried out by a fluorescence polarization method. In the assay, a GR competitive binding assay kit (manufactured by Invitrogen, cat No. P2816) was used for the assay, and a procedure was carried out according to the protocol attached to the kit. Hereinafter, the specific method will be described.
GR screening buffer: A buffer containing 10 mM of potassium phosphate (pH 7.4), 20 mM of sodium molybdate (Na2MoO4), 0.1 mM of ethylene diamine tetraacetic acid (EDTA), 5 mM of dithiothreitol (DTT), 0.1 mM of stabilizing peptide and 2% of dimethylsulfoxide was prepared.
4×GS1 solution: Fluormone™ GS1, which is a fluorescent glucocorticoid ligand, was diluted with GR screening buffer, whereby a 4 nM solution was prepared.
4×GR solution: Recombinant human GR was diluted with GR screening buffer, whereby a 16 nM solution was prepared.
After a test compound was dissolved in dimethylsulfoxide, the resulting solution was diluted with GR screening buffer, whereby a 20 μM test compound solution was prepared. In addition, DEX was similarly dissolved, whereby a DEX solution with a […] concentration was prepared, and the solution was diluted with GR screening buffer, whereby a 2 mM DEX solution was prepared. DEX was used as positive control.
• 1) The test compound solution was added in an amount of 10 μL into each well of a 384-well plate. • 2) 4×GS1 solution and 4×GR solution were added in an amount of 5 μL into each well, respectively. • 3) GR screening buffer was added in an amount of 10 μL/well into each well in place of the test compound solution, which was made a negative control. • 4) A 2 mM of DEX was added in an amount of 10 μL/well into each well in place of the test compound solution, which was made a positive control. • 5) The plate was incubated in a dark place at room temperature for 2 hours, and fluorescence polarization of each well was measured. (Calculation Equation of GR Binding Ratio)
A GR binding ratio (%) was calculated from the following equation. GR binding ratio (%)=100×{1−(fluorescence polarization of test compound solution−average value of fluorescence polarization of positive control solution)/(average value of fluorescence polarization of negative control solution−average value of fluorescence polarization of positive control solution)}

Sequence of Recombinant human GR (P04150 whole entry): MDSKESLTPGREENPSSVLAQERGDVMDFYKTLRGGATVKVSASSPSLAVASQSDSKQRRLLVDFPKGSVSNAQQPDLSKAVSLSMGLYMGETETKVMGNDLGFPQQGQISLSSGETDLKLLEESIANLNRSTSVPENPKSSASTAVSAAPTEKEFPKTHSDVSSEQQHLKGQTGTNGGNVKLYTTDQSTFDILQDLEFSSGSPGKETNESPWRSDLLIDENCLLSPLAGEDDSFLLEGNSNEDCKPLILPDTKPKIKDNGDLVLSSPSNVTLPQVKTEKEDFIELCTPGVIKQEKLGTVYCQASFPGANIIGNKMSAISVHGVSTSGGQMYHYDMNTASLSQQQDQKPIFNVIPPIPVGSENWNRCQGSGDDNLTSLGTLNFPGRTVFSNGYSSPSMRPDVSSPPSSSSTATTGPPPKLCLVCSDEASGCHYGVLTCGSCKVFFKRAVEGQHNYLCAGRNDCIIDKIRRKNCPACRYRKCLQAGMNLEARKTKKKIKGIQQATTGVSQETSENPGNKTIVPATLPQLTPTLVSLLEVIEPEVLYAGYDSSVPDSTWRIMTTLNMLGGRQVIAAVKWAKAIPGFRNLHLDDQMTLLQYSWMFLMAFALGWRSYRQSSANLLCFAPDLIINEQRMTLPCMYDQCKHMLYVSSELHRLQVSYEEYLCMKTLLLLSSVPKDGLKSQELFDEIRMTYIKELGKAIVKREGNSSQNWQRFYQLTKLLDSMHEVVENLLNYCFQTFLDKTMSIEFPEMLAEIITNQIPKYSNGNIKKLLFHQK

| Structure (SMILES) | inhibition at 10 µM (Recombinant human GR) [%] | inhibition at 20 µM (stock) (Recombinant human GR) [%] | Emax [1] [%] | IC50 [1] [nM] |
| --- | --- | --- | --- | --- |
| COc1cc(OCCO)ccc1-c1ccc2c(c1COc1cc(F)ccc1C)N(C)C(=O)C(C)(C)N2 [Compound 3-1, 8-(5-fluoro-2-methylphenoxymethyl)-7-[4-(2-hydroxyethyl)oxy-2-methoxyphenyl]-1,3,3-trimethyl-3,4-dihydro-1H-quinoxalin-2-one] | > 99 | – | – | – |
| COc1cc(OC[C@H](O)CC#N)ccc1-c1ccc2c(c1COc1cc(F)ccc1C)N(C)C(=O)C(C)(C)N2 [Compound 5-1, (R)-7-[4-(3-cyano-2-hydroxypropyl)oxy-2-methoxyphenyl]-8-(5-fluoro-2-methyl-phenoxymethyl)-1,3,3-trimethyl-3,4-dihydro-1H-quinoxalin-2-one] | 88 | – | 98 | 14 |
| COc1cc(OCC(O)CC(=O)OC(C)(C)C)ccc1-c1ccc2c(c1COc1cc(F)ccc1C)N(C)C(=O)C(C)(C)N2 (centres unmarked) [Compound 7-2, 7-[4-(3-t-butoxycarbonyl-2-hydroxypropyl)oxy-2-methoxyphenyl]-8-(5-fluoro-2-methylphenoxymethyl)-1,3,3-trimethyl-3,4-dihydro-1H-quinoxalin-2-one] | > 99 | – | > 99 | 83 |
| COc1cc(OCC(O)CC(=O)O)ccc1-c1ccc2c(c1COc1cc(F)ccc1C)N(C)C(=O)C(C)(C)N2 (centres unmarked) [Compound 9-1, 7-[4-(3-Carboxy-2-hydroxypropyl)oxy-2-methoxyphenyl]-8-(5-fluoro-2-methylphenoxymethyl)-1,3,3-trimethyl-3,4-dihydro-1H-quinoxalin-2-one] | > 99 | – | – | – |
| COc1cc(OCC(O)CC(=O)N2CCCC2)ccc1-c1ccc2c(c1COc1cc(F)ccc1C)N(C)C(=O)C(C)(C)N2 (centres unmarked) [Compound 10-1, 8-(5-fluoro-2-methylphenoxymethyl)-7-[4-[3-(N-pyrrolidylcarbonyl)-2-hydroxypropyl]oxy-2-methoxyphenyl]-1,3,3-trimethyl-3,4-dihydro-1H-quinoxalin-2-one] | 94 | – | – | – |
| COc1cc(OCC(O)CC(=O)N2CCCCC2)ccc1-c1ccc2c(c1COc1cc(F)ccc1C)N(C)C(=O)C(C)(C)N2 (centres unmarked) [Compound 10-3, 8-(5-fluoro-2-methylphenoxymethyl)-7-[4-[3-(N-piperidino)carbonyl-2-hydroxy-propyl]oxy-2-methoxyphenyl]-1,3,3-trimethyl-3,4-dihydro-1H-quinoxalin-2-one] | > 99 | – | – | – |
| COc1cc(OC[C@H](C)OC(=O)CN)ccc1-c1ccc2c(c1COc1cc(F)ccc1C)N(C)C(=O)C(C)(C)N2 [Compound 11-4, (S)-7-[4-(2-aminoacetoxypropyl)oxy-2-methoxyphenyl]-8-(5-fluoro-2-methylphenoxy-methyl)-1,3,3-trimethyl-3,4-dihydro-1H-quinoxalin-2-one hydrochloride] | – | – | 94 | – |
| COc1cc(OC[C@H](C)OC(=O)[C@@H](N)C(C)C)ccc1-c1ccc2c(c1COc1cc(F)ccc1C)N(C)C(=O)C(C)(C)N2 [Compound 11-5, 7-[4-[(2S)-[(2S)-amino-3-methylbutanoyloxy]propyl]oxy-2-methoxyphenyl]-8-(5-fluoro-2-methylphenoxymethyl)-1,3,3-trimethyl-3,4-dihydro-1H-quinoxalin-2-one hydrochloride] | > 99 | – | 94 | – |

Now from value to compound, other results behind:

| inhibition at 10 µM (Recombinant human GR) [%] | inhibition at 20 µM (stock) (Recombinant human GR) [%] | Structure (SMILES) | Emax [1] [%] | IC50 [1] [nM] |
| --- | --- | --- | --- | --- |
| 87 | – | CCOC(=O)C(O)COc1ccc(-c2ccc3c(c2COc2cc(F)ccc2C)N(C)C(=O)C(C)(C)N3)c(OC)c1 (stereo in doubt) [Compound 1-6, (R)-7-[4-(2-ethoxycarbonyl-2-hydroxyethyl)oxy-2-methoxyphenyl]-8-(5-fluoro-2-methylphenoxymethyl)-1,3,3-trimethyl-3,4-dihydro-1H-quinoxalin-2-one] | 89 | < 1 |
| > 99 | – | COc1cc(OCC(O)CO)ccc1-c1ccc2c(c1COc1cc(F)ccc1C)N(C)C(=O)C(C)(C)N2 (centres unmarked) [Compound 4-1, 7-[4-(2,3-dihydroxypropyl)oxy-2-methoxyphenyl]-8-(5-fluoro-2-methylphenoxymethyl)-1,3,3-trimethyl-3,4-dihydro-1H-quinoxalin-2-one] | – | – |
| – | > 99 | COc1cc(OC[C@@H](O)CO)ccc1-c1ccc2c(c1COc1cc(F)ccc1C)N(C)C(=O)C(C)(C)N2 [Compound 4-2, (S)-7-[4-(2,3-dihydroxypropyl)oxy-2-methoxyphenyl]-8-(5-fluoro-2-methylphenoxy-methyl)-1,3,3-trimethyl-3,4-dihydro-1H-quinoxalin-2-one] | – | – |
| 88 | – | COc1cc(OC[C@H](O)CO)ccc1-c1ccc2c(c1COc1cc(F)ccc1C)N(C)C(=O)C(C)(C)N2 [Compound 4-3, (R)-7-[4-(2,3-dihydroxypropyl)oxy-2-methoxyphenyl]-8-(5-fluoro-2-methylphenoxy-methyl)-1,3,3-trimethyl-3,4-dihydro-1H-quinoxalin-2-one] | – | – |
| > 99 | – | CCOC(=O)CC(O)COc1ccc(-c2ccc3c(c2COc2cc(F)ccc2C)N(C)C(=O)C(C)(C)N3)c(OC)c1 (centres unmarked) [Compound 7-1, 7-[4-(3-ethoxycarbonyl-2-hydroxypropyl)oxy-2-methoxyphenyl]-8-(5-fluoro-2-methylphenoxymethyl)-1,3,3-trimethyl-3,4-dihydro-1H-quinoxalin-2-one] | – | – |
